Results from US9573956B2, “Compounds as dual inhibitors of phosphodiesterases and histone deacetylases” (FUNDACIÓN PARA LA INVESTIGACIÓN MÉDICA APLICADA, priority 2013, dated 2017).

Columns and labels:
[1] = tested on: carboxyl terminal fragment AβPP (C99); experiment: AD-related markers in Tg2576 neurons: APP processing (C99); assay type: cell-based; details: Mus musculus, Neuron, 48 h, treated two days, EC50 = 50% decrease in C99 over basal
Method: The effects of the compounds on amyloid pathology were analysed in primary cultures (15 DIV) of neurons derived from the hippocampus and cortex of Tg2576 mouse embryos. Tg2576 mice express the human 695-aa isoform of APP (hAPP) containing the Swedish double mutation, which favours Aβ production. Neurons were treated for two days and collected at day 3, 24 h after the last treatment. First it was analysed the effect of the compounds on hAPP processing by the amyloidogenic pathway by measuring the carboxyl terminal fragment AβPP (C99), which is the precursor of Aβ42. In this case the reported EC50, Table 2 (below), means a 50% decrease in C99 levels over basal (saline, no treatment).
To analyze APP-derived fragments and p-tau levels in primary neuronal cultures, cells were collected in a buffer containing SDS (2%), Tris-HCl (10 mM, pH 7.4), protease inhibitors (1 mM PMSF and Complete Protease Inhibitor Cocktail: Roche Diagnostics) and phosphatase inhibitors (0.1 mM Na3VO4 and 1 mM NaF). The homogenates were sonicated for 2 min and centrifuged at 100,000×g for 1 h. Aliquots of the supernatant were frozen at −80° C. and their protein concentrations determined by the Bradford method using the Bio-Rad protein assay (Bio-Rad, Hercules, Calif., USA). Aliquots of the protein extracts were mixed with XT sample buffer plus XT reducing agent (Bio-Rad, Hercules, Calif., USA) and boiled for 5 min. Proteins were separated in a Criterion precast Bis-Tris 4-12% gradient precast gel (Bio-Rad, Hercules, Calif., USA) and transferred to a PVDF membrane with a removal rating of […] (Hybond LFP, Amersham Biosciences, Little Chalfont, UK). The membranes were blocked with 5% milk, 0.05% Tween-20 in PBS or TBS, and incubated overnight with the following primary antibodies in the corresponding buffers: mouse monoclonal anti-phosphotau AT8 (Pierce Biotechnology Inc., Rockford), mouse monoclonal anti-tau (clone Tau46, Sigma-Aldrich, St Louis, Mo.), 6E10 mouse monoclonal antibody (amino acids 1-17 of Aβ peptide; Millipore), mouse monoclonal anti-β-actin, mouse monoclonal anti-α-tubulin and mouse monoclonal anti-Acetylated-tubulin (Sigma). All antibodies were used at dilutions of 1:1,000 except for the mouse monoclonal anti-β-actin, anti-Acetylated-tubulin and anti-tubulin (1:50,000). Following two washes in TBS/Tween20 and one wash in TBS alone, immunolabelled protein bands were detected using HRP-conjugated anti-rabbit or anti-mouse antibodies (diluted 1:5,000: Santa Cruz). Binding was visualised by enhanced chemiluminescence (ECL, GE Healthcare Bioscience, Buckinghamshire, UK) and autoradiographic exposure to Hyperfilm ECL (GE Healthcare Bioscience), using Quantity One™ software v.4.6.3 (Bio-Rad) for quantification.

[2] = tested on: pCREB; experiment: In-vivo activity, hippocampus of wild type mice: pCREB; set-up: species or system mouse; details: i.p. 40 mg/kg, hippocampus one hour later
Method: (§1) To determine the ability of the compounds to inhibit HDAC and PDE in the brain, the compound was administered to wild type mice by i.p. at a dose of 40 mg/kg (n=3). Another group of animals received the vehicle (1/1/8, v:v:v, DMSO/Tween 20/saline). One hour later, mice were sacrificed by cervical dislocation and their hippocampus was quickly dissected from the brains.
(§2) Total tissue homogenates were obtained by homogenizing the hippocampus in a cold lysis buffer with protease inhibitors (0.2 M NaCl, 0.1 M HEPES, 10% glycerol, 200 mM NaF, 2 mM Na4P2O7, 5 mM EDTA, 1 mM EGTA, 2 mM DTT, 0.5 mM PMSF, 1 mM Na3VO4 and Complete Protease Inhibitor Cocktail, Roche Diagnostics). The homogenate was then centrifuged at 14,000×g at 4° C. for 20 min and the supernatant aliquoted and stored at −80° C. Total protein concentrations were determined using the BioRad Bradford protein assay (BioRad Laboratories). Protein samples were analyzed as described in the “in vitro” section.

[3] = molecular target: HDAC1 (Homo sapiens, UniProt Q13547); experiment: HDAC enzyme activity assay (fluorogenic substrate), HDAC1; assay type: biochemical; details: recombinant enzyme; read-out: HDAC1 inhibition (IC50)
[4] = tested on: AcH3; experiment: In-vivo activity, hippocampus of wild type mice: AcH3; set-up: species or system mouse; details: i.p. 40 mg/kg, hippocampus one hour later
Method: as §1, §2

[5] = molecular target: T1, HDAC3 (Homo sapiens, UniProt O15379); experiment: HDAC enzyme activity assay (fluorogenic substrate), HDAC3; assay type: biochemical; details: recombinant enzyme; read-out: HDAC3 inhibition (IC50)
T1 construct: is full-length with C-terminal his tag and human NCOR2, N-terminal GST tag; His (C); purchased BPS Biosciences 50003; host or cells: baculovirus infected Sf9 cells

[6] = tested on: acetylated-α-tubulin; experiment: AD-related markers in Tg2576 neurons: acetylated-tubulin; assay type: cell-based; details: Mus musculus, Neuron, 48 h, treated two days, EC50 = 50% increase in acetylated-α-tubulin over basal, read-out: AcTub (EC50)
[7] = tested on: pCREB; experiment: PDE activity in wild type primary neurons (Western blot pCREB); assay type: cell-based; details: Mus musculus, Neuron, 0.5 h, 30 min, EC50 = 50% increase in pCREB over basal
[8] = tested on: acetylated histone 3 at Lys9 (AcH3K9); experiment: HDAC activity in wild type primary neurons (Western blot AcH3K9); assay type: cell-based, mouse; details: Mus musculus, Neuron, 0.5 h, 30 min, EC50 = 50% increase in AcH3K9 over basal, read-out: AcH3 (EC50)
[9] = molecular target: T2, PDE5A (Homo sapiens, UniProt O76074); experiment: PDE enzyme activity assay (HTRF cGMP), PDE5A; assay type: biochemical; details: recombinant enzyme; read-out: PDE5A1 inhibition (IC50)
T2 construct: they are full-length with N-terminal GST tag; GST (N); purchased BPS Biosciences 60050; host or cells: baculovirus infected Sf9 cells

T1 sequence (O15379 whole entry): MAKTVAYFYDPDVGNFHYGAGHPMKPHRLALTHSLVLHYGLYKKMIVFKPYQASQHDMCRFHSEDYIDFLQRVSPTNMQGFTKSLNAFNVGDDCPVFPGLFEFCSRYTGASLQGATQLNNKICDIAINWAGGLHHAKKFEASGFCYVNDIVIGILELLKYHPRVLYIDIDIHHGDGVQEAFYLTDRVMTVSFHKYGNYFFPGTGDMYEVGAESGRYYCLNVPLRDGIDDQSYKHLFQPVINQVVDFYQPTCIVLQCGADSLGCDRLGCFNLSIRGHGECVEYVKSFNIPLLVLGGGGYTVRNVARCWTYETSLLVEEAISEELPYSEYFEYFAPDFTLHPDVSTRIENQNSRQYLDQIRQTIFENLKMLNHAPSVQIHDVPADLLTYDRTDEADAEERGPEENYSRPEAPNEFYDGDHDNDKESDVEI
T1 sequence (Q9Y618 395-489 partner limits assumed): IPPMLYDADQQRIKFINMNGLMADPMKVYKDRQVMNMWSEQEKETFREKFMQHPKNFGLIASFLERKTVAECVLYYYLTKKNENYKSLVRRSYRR
Chain of HDAC1 (Q13547 whole entry): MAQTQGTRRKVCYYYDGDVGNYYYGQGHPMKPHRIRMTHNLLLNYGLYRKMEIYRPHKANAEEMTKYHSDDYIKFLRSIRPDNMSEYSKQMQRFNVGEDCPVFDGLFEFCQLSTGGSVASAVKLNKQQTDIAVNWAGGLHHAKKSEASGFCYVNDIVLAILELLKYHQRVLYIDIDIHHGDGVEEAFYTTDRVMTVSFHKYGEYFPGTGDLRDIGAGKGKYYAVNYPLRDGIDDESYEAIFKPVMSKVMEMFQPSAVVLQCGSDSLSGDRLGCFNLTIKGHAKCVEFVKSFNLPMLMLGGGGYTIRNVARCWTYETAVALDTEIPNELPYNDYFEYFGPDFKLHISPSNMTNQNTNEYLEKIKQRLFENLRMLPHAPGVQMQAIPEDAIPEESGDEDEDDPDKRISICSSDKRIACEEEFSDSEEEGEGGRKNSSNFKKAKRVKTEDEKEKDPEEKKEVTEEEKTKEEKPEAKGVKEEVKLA

CCCc1nn(C)c2c(=O)[nH]c(-c3cc(Cc4ccc(C(=O)NO)s4)ccc3OCC)nc12 [Example 1-16]
EC50 [1]: 10 to 1000 nM | pCREB, increment in biological response vs basal [2]: + (basal×1 means no increment (+)) | IC50 [3]: 10 to 1000 nM | AcH3, increment in biological response vs basal [4]: ++ (basal×1≦(++)<basal×2) | IC50 [5]: 1000 to 10000 nM | EC50 [6]: 10 to 1000 nM | EC50 [7]: 10 to 1000 nM | EC50 [8]: 10 to 1000 nM | IC50 [9]: 10 to 1000 nM

CCCc1nn(C)c2c(=O)[nH]c(-c3cc(S(=O)(=O)N4CCN(c5ncc(C(=O)NO)cn5)CC4)ccc3OCC)nc12 [Example 1-06, 2-(4-[3-(6,7-Dihydro-1-methyl-7-oxo-3-propyl-1H-pyrazolo[4,3-d]pyrimidin-5-yl)-4-ethoxyphenylsulfonyl]piperazin-1-yl)-N-hydroxypyrimidine-5-carboxamide]
EC50 [1]: 10 to 1000 nM | pCREB, increment in biological response vs basal [2]: +++ (basal×2≦(+++)<basal×3) | IC50 [3]: < 10 nM | AcH3, increment in biological response vs basal [4]: +++ (basal×2≦(+++)<basal×3) | IC50 [5]: 10 to 1000 nM | EC50 [6]: 10 to 1000 nM | EC50 [7]: 10 to 1000 nM | EC50 [8]: 10 to 1000 nM | IC50 [9]: < 10 nM

CCCc1nn(C)c2c(=O)[nH]c(-c3cc(Cc4ccc(C(=O)NO)cc4)ccc3OCC)nc12 [Example 1-15, 4-[[4-ethoxy-3-(1-methyl-7-oxo-3-propyl-6H-pyrazolo[4,3-d]pyrimidin-5-yl)phenyl]methyl]benzenecarbohydroxamic acid]
EC50 [1]: 10 to 1000 nM | pCREB, increment in biological response vs basal [2]: + (basal×1 means no increment (+)) | IC50 [3]: 10 to 1000 nM | AcH3, increment in biological response vs basal [4]: + (basal×1 means no increment (+)) | IC50 [5]: 1000 to 10000 nM | EC50 [6]: 10 to 1000 nM | EC50 [7]: 10 to 1000 nM | EC50 [8]: 10 to 1000 nM | IC50 [9]: 10 to 1000 nM

CCCc1nn(C)c2c(=O)[nH]c(-c3cc(CC4CC(C(=O)NO)C4)ccc3OCC)nc12 (racemic) [Example 1-19, 3-[[4-ethoxy-3-(1-methyl-7-oxo-3-propyl-6H-pyrazolo[4,3-d]pyrimidin-5-yl)phenyl]methyl]cyclobutanecarbohydroxamic acid]
EC50 [1]: 10 to 1000 nM | pCREB, increment in biological response vs basal [2]: +++ (basal×2≦(+++)<basal×3) | IC50 [3]: 10 to 1000 nM | AcH3, increment in biological response vs basal [4]: +++ (basal×2≦(+++)<basal×3) | IC50 [5]: 10 to 1000 nM | EC50 [6]: 10 to 1000 nM | EC50 [7]: 10 to 1000 nM | EC50 [8]: 10 to 1000 nM | IC50 [9]: 10 to 1000 nM
